Assay results: ChEMBL document CHEMBL4184248, “A multicomponent approach in the discovery of indoleamine 2,3-dioxygenase 1 inhibitors: Synthesis, biological investigation and docking studies” (Bioorg Med Chem Lett, 2018)

Experiments:
[1] = target: T1, Indoleamine 2,3-dioxygenase 1 (Homo sapiens, UniProt P14902); experiment: Inhibition of human recombinant IDO1 assessed as reduction in kynurenine production at 1 uM using L-tryptophan incubated for 60 mins by Ehrlich's reagent based assay
Target sequence in this assay (P14902 whole entry, looked up): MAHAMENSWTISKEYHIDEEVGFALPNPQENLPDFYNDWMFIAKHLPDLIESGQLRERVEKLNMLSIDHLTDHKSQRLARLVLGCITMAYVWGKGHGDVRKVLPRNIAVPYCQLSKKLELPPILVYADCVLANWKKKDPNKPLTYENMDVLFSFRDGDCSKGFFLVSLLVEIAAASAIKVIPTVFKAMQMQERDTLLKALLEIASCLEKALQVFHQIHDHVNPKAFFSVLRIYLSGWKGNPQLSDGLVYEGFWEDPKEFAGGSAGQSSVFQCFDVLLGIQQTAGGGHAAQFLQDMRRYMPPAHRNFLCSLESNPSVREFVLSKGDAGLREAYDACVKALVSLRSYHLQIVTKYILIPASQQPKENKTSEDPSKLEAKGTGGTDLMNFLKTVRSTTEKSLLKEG

A-375 = experiment: Cytotoxicity in human A375 cells assessed as cell viability at 10 uM incubated for 48 hrs by MTT assay; format: functional; conditions: A-375, 48 h, read-out: Activity
[2] = target: T1, Indoleamine 2,3-dioxygenase 1; experiment: Inhibition of human recombinant IDO1 assessed as reduction in kynurenine production using L-tryptophan incubated for 60 mins by Ehrlich's reagent based assay
Target sequence in this assay (P14902 whole entry): as the sequence (P14902 whole entry, looked up) above

Row | Compound | inhibition [1] [%] | viability at 10 µM (A-375) [%] | IC50 [2] [µM]
1 | CN(CC(=O)NCc1cnc2scc(-c3ccc(Br)cc3)n12)C(=O)Cc1cccc(C#N)c1 | 0 | 90 | –
2 | O=C(COC(=O)Cc1ccc(O)cc1)NCc1cnc2scc(-c3ccc(Br)cc3)n12 | 89 | 100 | 0.2
3 | CN(CC(=O)NCc1cnc2scc(-c3ccc(Br)cc3)n12)C(=O)Cc1ccccc1[N+](=O)[O-] | 67 | 92 | 0.73
4 | O=C(COC(=O)Cc1ccc(O)c(O)c1)NCc1cnc2scc(-c3ccc(Br)cc3)n12 | 40 | 99 | –
5 | CN(CC(=O)NCc1cnc2scc(-c3ccc(Br)cc3)n12)C(=O)Cc1cccc(Cl)c1 | 39 | 83 | –
6 | CC(=O)N(C)CC(=O)NCc1cnc2scc(-c3ccc(Br)cc3)n12 | 21 | 98 | –
7 | O=C(COC(=O)Cc1cccc([N+](=O)[O-])c1)NCc1cnc2scc(-c3ccc(Br)cc3)n12 | 50 | 100 | –
8 | O=C(CNC(=O)Cc1ccccc1)NCc1cnc2scc(-c3ccc(Br)cc3)n12 | 46 | 100 | –
9 | CN(CC(=O)NCc1cnc2scc(-c3ccc(Br)cc3)n12)C(=O)c1ccccc1 | 50 | 96 | –
10 | CN(CC(=O)NCc1cnc2scc(-c3ccc(Br)cc3)n12)C(=O)Cc1ccc(C#N)cc1 | 18 | 92 | –
11 | CN(CC(=O)NCc1cnc2scc(-c3ccc(Br)cc3)n12)C(=O)Cc1ccc(Cl)cc1 | 51 | 64 | –
12 | O=C(COC(=O)Cc1ccccc1[N+](=O)[O-])NCc1cnc2scc(-c3ccc(Br)cc3)n12 | 41 | 100 | –
13 | N[C@H](C(=O)NCC(=O)NCc1cnc2scc(-c3ccc(Br)cc3)n12)c1ccccc1 | 10 | 96 | –
14 | O=C(COC(=O)Cc1ccccc1Cl)NCc1cnc2scc(-c3ccc(Br)cc3)n12 | 46 | 100 | –
15 | CN(CC(=O)NCc1cnc2scc(-c3ccc(Br)cc3)n12)C(=O)Cc1ccc(O)c(O)c1 | 34 | 99 | –
16 | CN(CC(=O)NCc1cnc2scc(-c3ccc(Br)cc3)n12)C(=O)c1ccc(C#N)cc1 | 47 | 87 | –
17 | CN(CC(=O)NCc1cnc2scc(-c3ccc(Br)cc3)n12)C(=O)Cc1cccc([N+](=O)[O-])c1 | 65 | 93 | 0.63
18 | CN(CC(=O)NCc1cnc2scc(-c3ccc(Br)cc3)n12)C(=O)Cc1ccccc1 | 62 | 100 | 0.69
19 | CN(CC(=O)NCc1cnc2scc(-c3ccc(Br)cc3)n12)C(=O)Cc1ccccc1Cl | 41 | 71 | –
20 | O=C(COC(=O)Cc1ccc(Cl)cc1)NCc1cnc2scc(-c3ccc(Br)cc3)n12 | 32 | 100 | –

Row | Compound | inhibition [1] [%] | viability at 10 µM (A-375) [%] | IC50 [2] [µM]
21 | N#Cc1cccc(CC(=O)OCC(=O)NCc2cnc3scc(-c4ccc(Br)cc4)n23)c1 | 29 | 97 | –
22 | N#Cc1ccc(NC(=O)NCc2cnc3scc(-c4ccc(Br)cc4)n23)cc1 | 97 | 99 | 0.08
23 | O=C(CO)NCc1cnc2scc(-c3ccc(Br)cc3)n12 | 48 | 97 | –
24 | O=C(COC(=O)Cc1ccccc1O)NCc1cnc2scc(-c3ccc(Br)cc3)n12 | 73 | 100 | 0.87
25 | CN(CC(=O)NCc1cnc2scc(-c3ccc(Br)cc3)n12)C(=O)c1ccc([N+](=O)[O-])cc1 | 45 | 100 | –
26 | O=C(COC(=O)Cc1ccccc1)NCc1cnc2scc(-c3ccc(Br)cc3)n12 | 72 | 98 | 0.58
27 | CN(CC(=O)NCc1cnc2scc(-c3ccc(Br)cc3)n12)C(=O)Cc1ccccc1O | 0 | 88 | –
28 | Cn1cc(C[C@H](N)C(=O)O)c2ccccc21 [(L)-1-METHYLTRYPTOPHAN] | – | 100 | –
29 | O=C(COC(=O)Cc1ccc([N+](=O)[O-])cc1)NCc1cnc2scc(-c3ccc(Br)cc3)n12 | 39 | 100 | –
30 | O=C(COC(=O)Cc1cccc(O)c1)NCc1cnc2scc(-c3ccc(Br)cc3)n12 | 59 | 100 | –
31 | CN(CC(=O)NCc1cnc2scc(-c3ccc(Br)cc3)n12)C(=O)Cc1ccc(O)cc1 | 55 | 91 | –
32 | NS(=O)(=O)NCCNc1nonc1/C(=N/O)Nc1ccc(F)c(Br)c1 [EPACADOSTAT] | – | 100 | –
33 | N#Cc1ccc(CC(=O)OCC(=O)NCc2cnc3scc(-c4ccc(Br)cc4)n23)cc1 | 69 | 100 | 0.34
34 | COc1ccc(C(=O)N(C)CC(=O)NCc2cnc3scc(-c4ccc(Br)cc4)n23)cc1 | 49 | 82 | –
35 | O=C(COC(=O)Cc1cccc(Cl)c1)NCc1cnc2scc(-c3ccc(Br)cc3)n12 | 39 | 100 | –
36 | CN(CC(=O)NCc1cnc2scc(-c3ccc(Br)cc3)n12)C(=O)Cc1cccc(O)c1 | 63 | 100 | 0.45
37 | COc1cccc(C(=O)N(C)CC(=O)NCc2cnc3scc(-c4ccc(Br)cc4)n23)c1 | 48 | 98 | –
38 | CN(CC(=O)NCc1cnc2scc(-c3ccc(Br)cc3)n12)C(=O)Cc1ccc([N+](=O)[O-])cc1 | 66 | 100 | 0.81
39 | N[C@H](C(=O)NCC(=O)NCc1cnc2scc(-c3ccc(Br)cc3)n12)c1ccc(O)cc1 | 0 | 100 | –
